Structures are written as SMILES.

Targets include D(1A) dopamine receptor (Homo sapiens, UniProt P21728); Histamine H3 receptor (Homo sapiens, UniProt Q9Y5N1); Mu-type opioid receptor (Homo sapiens, UniProt P35372).
The target of the next test is Acetylcholinesterase (Homo sapiens, UniProt P22303). It counts as functional.
Test [1] addresses T1, Alpha-1A adrenergic receptor (Homo sapiens, UniProt P35348).
T1 sequence (P35348 whole entry): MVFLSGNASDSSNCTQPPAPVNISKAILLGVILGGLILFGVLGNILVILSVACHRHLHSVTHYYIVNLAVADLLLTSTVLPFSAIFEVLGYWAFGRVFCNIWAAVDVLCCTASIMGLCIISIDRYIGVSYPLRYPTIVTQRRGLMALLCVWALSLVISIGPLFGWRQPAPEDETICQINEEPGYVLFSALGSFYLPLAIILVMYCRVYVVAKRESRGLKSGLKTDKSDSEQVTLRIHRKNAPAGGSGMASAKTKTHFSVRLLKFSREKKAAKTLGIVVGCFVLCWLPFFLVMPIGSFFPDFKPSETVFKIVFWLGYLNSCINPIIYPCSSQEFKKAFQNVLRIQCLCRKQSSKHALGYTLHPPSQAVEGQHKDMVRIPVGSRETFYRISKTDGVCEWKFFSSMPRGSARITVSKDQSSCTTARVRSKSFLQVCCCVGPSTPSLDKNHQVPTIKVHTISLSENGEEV
It counts as functional, cell-based.

In test [2] the target is 5-hydroxytryptamine receptor 2B (Homo sapiens, UniProt P41595). It counts as functional, cell-based.
The target of test [3] is T2, Amine oxidase [flavin-containing] A (Homo sapiens, UniProt P21397).
T2 sequence (P21397 whole entry): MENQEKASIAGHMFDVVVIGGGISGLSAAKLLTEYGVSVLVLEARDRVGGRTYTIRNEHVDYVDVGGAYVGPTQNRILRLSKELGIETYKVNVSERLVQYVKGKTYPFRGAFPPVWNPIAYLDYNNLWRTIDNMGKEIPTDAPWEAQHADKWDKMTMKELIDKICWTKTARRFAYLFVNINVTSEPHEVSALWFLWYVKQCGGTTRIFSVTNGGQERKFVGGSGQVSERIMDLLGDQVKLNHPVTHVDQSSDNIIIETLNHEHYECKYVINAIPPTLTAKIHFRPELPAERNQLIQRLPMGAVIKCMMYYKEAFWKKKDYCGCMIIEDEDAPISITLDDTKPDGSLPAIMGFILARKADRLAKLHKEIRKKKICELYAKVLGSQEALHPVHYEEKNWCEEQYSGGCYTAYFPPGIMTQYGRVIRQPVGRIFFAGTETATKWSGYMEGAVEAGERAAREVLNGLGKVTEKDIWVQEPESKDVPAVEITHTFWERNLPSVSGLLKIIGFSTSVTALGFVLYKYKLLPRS
It counts as functional.

Test [4] concerns the target cGMP-inhibited 3',5'-cyclic phosphodiesterase 3A (Homo sapiens, UniProt Q14432). It counts as functional.
Another test has as its target T3, Progesterone receptor (Homo sapiens, UniProt P06401).
T3 sequence (P06401 whole entry): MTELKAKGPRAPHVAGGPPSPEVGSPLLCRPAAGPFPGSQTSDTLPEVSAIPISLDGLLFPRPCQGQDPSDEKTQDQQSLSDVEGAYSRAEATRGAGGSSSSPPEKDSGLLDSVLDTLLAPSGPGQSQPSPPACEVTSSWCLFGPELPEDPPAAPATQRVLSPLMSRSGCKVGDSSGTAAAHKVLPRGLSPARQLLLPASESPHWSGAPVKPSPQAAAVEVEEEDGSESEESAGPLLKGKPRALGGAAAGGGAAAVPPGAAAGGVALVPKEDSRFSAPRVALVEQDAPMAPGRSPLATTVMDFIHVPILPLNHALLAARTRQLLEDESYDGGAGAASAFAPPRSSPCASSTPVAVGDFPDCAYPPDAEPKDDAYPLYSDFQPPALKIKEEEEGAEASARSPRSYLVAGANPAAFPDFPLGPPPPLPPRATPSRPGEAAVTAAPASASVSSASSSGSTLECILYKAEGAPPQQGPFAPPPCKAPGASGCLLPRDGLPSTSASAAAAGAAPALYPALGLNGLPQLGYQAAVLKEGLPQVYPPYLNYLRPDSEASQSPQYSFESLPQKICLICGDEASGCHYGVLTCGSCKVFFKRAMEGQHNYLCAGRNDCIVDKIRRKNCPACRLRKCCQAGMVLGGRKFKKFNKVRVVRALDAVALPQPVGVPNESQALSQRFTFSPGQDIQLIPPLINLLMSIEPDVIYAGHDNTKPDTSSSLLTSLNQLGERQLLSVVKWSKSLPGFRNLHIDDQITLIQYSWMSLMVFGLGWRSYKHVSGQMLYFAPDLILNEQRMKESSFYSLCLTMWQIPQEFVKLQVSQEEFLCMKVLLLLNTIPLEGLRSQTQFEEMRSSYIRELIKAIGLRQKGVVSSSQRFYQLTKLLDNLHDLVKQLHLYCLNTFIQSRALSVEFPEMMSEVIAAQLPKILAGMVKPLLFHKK

In test [5] the target is T4, Prostaglandin G/H synthase 1 (Homo sapiens, UniProt P23219). It counts as functional.
Test [6] deals with T4, Prostaglandin G/H synthase 1. It counts as functional. This is another data set of the same source.
Test [7] deals with Sodium-dependent noradrenaline transporter (Homo sapiens, UniProt P23975).
The target of test [8] is Sodium-dependent serotonin transporter (Homo sapiens, UniProt P31645).
A further test concerns the target T5, Adenosine receptor A3 (Homo sapiens, UniProt P0DMS8).
T5 sequence (P0DMS8 whole entry): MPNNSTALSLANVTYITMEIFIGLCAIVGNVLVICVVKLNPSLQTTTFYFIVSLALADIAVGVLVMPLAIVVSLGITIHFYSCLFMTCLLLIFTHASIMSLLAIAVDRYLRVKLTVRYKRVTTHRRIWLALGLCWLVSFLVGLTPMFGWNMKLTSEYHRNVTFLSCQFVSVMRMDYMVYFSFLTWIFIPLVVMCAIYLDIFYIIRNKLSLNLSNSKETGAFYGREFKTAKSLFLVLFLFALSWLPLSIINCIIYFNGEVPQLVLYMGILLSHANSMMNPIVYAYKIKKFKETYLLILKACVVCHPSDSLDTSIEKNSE

Test [9] deals with Vascular endothelial growth factor receptor 2 (Homo sapiens, UniProt P35968). It counts as functional.
Further: assay procedure not described here.

Sequence of Sodium-dependent noradrenaline transporter (P23975 whole entry): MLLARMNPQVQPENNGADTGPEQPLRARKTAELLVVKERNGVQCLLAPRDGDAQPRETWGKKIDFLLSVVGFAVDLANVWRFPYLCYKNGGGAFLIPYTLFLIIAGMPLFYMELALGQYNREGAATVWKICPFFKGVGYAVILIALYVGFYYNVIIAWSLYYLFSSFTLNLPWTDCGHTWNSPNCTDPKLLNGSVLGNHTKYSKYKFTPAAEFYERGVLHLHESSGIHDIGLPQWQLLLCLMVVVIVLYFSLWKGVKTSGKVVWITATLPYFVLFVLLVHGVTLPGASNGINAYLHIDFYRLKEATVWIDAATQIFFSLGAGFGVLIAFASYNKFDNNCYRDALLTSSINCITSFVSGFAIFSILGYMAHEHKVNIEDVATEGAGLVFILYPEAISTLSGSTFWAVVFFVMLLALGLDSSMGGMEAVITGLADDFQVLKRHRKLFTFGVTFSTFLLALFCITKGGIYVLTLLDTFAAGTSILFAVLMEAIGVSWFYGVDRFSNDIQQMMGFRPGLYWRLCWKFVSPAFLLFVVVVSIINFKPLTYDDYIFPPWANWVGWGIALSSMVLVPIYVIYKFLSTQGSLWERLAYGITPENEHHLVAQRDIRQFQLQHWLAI
Sequence of cGMP-inhibited 3',5'-cyclic phosphodiesterase 3A (Q14432 whole entry): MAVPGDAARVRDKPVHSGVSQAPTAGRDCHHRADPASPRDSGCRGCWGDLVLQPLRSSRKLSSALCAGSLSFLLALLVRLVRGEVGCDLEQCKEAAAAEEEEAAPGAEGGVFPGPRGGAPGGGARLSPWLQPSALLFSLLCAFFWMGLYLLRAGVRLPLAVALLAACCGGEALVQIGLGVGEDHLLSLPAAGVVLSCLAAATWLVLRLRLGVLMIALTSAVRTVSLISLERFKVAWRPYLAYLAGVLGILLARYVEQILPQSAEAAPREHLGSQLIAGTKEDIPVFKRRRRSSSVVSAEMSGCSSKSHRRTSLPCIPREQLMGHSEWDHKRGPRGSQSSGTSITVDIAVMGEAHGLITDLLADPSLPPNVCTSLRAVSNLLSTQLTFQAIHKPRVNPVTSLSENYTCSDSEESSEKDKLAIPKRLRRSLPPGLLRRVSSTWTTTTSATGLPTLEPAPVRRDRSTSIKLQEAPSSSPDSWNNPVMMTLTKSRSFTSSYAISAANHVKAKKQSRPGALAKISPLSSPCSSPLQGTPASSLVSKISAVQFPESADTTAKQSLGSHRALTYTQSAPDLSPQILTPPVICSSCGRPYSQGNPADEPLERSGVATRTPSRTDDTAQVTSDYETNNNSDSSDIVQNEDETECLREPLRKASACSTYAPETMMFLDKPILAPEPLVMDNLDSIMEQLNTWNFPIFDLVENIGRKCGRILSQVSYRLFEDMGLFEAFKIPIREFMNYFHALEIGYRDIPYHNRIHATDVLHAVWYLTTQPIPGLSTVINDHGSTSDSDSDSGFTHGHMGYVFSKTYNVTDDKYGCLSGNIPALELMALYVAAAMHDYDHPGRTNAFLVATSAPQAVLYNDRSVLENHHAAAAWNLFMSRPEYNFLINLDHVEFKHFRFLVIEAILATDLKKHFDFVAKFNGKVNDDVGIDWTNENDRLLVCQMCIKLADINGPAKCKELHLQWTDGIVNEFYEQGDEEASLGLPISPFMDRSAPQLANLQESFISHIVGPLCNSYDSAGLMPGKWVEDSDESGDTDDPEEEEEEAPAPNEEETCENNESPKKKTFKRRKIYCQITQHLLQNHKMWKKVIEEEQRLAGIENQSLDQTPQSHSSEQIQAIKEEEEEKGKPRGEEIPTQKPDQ
Sequence of Acetylcholinesterase (P22303 whole entry): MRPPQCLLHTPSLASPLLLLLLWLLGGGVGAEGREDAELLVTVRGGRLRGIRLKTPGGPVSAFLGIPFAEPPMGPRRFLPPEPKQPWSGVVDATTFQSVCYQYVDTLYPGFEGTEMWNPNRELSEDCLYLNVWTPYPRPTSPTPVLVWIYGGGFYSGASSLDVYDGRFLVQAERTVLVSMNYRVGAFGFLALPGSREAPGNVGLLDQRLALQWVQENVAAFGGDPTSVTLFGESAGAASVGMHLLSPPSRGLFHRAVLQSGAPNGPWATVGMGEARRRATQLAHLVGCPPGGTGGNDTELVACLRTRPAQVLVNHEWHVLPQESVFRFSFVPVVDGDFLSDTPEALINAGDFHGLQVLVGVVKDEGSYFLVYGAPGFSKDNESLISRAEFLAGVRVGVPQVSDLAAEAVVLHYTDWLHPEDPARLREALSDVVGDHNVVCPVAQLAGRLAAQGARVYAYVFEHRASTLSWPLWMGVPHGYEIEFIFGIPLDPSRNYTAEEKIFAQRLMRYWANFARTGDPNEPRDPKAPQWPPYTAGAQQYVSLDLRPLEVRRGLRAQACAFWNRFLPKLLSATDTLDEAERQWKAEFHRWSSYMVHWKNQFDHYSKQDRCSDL
Sequence of 5-hydroxytryptamine receptor 2B (P41595 whole entry): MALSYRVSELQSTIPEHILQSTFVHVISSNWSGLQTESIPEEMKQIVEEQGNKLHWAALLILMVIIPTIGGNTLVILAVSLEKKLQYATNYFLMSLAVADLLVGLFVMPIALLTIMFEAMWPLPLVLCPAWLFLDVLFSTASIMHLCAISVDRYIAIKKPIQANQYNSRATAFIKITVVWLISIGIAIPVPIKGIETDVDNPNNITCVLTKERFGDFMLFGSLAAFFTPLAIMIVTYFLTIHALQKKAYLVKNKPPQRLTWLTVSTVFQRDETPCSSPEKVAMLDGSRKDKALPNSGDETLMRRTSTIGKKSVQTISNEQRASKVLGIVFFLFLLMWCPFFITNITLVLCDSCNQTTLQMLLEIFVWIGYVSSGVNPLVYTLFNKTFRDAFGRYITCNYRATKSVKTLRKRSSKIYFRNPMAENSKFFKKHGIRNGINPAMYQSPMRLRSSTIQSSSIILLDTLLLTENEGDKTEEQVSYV
Sequence of D(1A) dopamine receptor (P21728 whole entry): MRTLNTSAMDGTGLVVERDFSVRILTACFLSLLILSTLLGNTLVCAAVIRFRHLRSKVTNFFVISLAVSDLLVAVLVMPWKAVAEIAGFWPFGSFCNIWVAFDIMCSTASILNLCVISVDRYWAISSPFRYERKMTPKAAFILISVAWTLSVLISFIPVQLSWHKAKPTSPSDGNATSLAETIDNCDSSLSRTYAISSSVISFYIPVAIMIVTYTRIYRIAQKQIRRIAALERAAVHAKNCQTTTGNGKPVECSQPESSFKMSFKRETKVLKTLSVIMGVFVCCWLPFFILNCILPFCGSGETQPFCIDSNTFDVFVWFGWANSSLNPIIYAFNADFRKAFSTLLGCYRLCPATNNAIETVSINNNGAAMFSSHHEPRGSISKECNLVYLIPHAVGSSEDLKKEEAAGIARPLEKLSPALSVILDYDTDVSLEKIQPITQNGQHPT
Sequence of Mu-type opioid receptor (P35372 whole entry): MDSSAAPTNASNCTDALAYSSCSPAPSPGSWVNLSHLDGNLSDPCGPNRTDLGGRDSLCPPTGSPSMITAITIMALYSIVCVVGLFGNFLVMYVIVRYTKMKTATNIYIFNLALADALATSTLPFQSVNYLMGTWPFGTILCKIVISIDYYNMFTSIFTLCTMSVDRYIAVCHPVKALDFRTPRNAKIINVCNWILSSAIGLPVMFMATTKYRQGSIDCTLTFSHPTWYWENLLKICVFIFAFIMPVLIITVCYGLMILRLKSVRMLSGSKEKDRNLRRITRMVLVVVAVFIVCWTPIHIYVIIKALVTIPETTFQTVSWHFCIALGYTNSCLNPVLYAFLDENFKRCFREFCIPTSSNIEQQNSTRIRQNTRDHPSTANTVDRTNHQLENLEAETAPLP
Sequence of Vascular endothelial growth factor receptor 2 (P35968 whole entry): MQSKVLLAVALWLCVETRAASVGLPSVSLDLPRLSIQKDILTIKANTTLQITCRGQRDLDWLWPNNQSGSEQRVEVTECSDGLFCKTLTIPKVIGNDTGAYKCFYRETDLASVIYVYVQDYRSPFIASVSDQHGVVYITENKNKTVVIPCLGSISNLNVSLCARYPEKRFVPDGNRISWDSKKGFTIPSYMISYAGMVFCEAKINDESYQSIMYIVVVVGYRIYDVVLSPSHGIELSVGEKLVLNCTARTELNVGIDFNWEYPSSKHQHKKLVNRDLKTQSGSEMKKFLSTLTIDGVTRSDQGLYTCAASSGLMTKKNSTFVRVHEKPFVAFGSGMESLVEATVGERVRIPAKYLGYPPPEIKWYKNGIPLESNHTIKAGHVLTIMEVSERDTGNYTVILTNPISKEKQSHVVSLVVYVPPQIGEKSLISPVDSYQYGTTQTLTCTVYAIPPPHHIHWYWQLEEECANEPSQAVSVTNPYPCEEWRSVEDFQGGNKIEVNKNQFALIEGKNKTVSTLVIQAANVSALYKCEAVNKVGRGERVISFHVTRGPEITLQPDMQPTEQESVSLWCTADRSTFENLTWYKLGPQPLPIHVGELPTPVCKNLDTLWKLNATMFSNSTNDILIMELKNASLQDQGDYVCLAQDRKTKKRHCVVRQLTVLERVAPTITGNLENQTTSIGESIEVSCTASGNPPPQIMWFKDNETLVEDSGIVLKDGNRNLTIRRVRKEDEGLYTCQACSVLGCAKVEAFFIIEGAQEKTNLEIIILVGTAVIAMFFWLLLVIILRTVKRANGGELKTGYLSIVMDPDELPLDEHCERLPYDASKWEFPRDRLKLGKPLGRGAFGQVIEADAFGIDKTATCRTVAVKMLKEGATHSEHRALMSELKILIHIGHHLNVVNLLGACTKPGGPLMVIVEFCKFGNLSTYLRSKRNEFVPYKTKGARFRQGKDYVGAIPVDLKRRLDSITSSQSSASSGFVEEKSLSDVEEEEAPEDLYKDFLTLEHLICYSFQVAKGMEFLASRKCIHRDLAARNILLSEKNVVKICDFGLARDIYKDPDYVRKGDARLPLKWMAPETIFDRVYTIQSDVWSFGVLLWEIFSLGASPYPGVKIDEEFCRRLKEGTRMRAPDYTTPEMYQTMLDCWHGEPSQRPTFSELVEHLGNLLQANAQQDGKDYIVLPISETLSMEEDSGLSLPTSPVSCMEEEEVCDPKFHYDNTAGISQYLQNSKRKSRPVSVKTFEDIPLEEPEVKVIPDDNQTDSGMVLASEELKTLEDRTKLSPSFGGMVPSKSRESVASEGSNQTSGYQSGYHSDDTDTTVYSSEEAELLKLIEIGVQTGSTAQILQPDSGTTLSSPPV

In general, AC50 refers to the concentration giving half of the maximal activity seen. Higher therefore signals weaker potency. Regarding `CCC(CC)(CC(=O)Nc1cccc(/C=C/c2nc(C3CCC3)cs2)c1)C(=O)O`, the concentration at half-maximal activity (AC50) was greater than 30 µM at Acetylcholinesterase; greater than 10 µM in test [1]; greater than 30 µM on D(1A) dopamine receptor; greater than 30 µM at Histamine H3 receptor; greater than 30 µM in test [2]; greater than 30 µM in [3]. For the same molecule, the AC50 was greater than 30 µM on Mu-type opioid receptor; greater than 30 µM in test [4]; greater than 30 µM at Progesterone receptor; 26.2 µM in [5]; greater than 30 µM in test [6]; greater than 30 µM in test [7]. In test [8], this molecule gave an AC50 greater than 30 µM.
Turning to `Cc1cc(C)c(NC(=O)CN(CC(=O)O)CC(=O)O)c(C)c1Br` [MEBROFENIN], the AC50 (at Acetylcholinesterase; on D(1A) dopamine receptor; on Histamine H3 receptor; in test [2]; in [3]; at Mu-type opioid receptor) was greater than 30 µM each time. For the same molecule, the AC50 (in test [4]; at Progesterone receptor; in [5]; in [6]; in test [7]; in [8]) was greater than 30 µM each time.
Consider `COc1ccccc1N1CCN(CC(O)COc2cccc3ccccc23)CC1` (stereo unspecified) [NAFTOPIDIL], for which the AC50 is 26.1 µM at Acetylcholinesterase; 2.08 µM at D(1A) dopamine receptor; greater than 30 µM on Histamine H3 receptor; greater than 30 µM in [2]; greater than 30 µM in test [3]; 0.9 µM at Mu-type opioid receptor. Besides, the half-maximal activity concentration (AC50) in test [4] was greater than 30 µM; at Progesterone receptor, greater than 30 µM; in test [5] it was greater than 30 µM; in test [6] it was greater than 30 µM; in [7], 6.01 µM; in [8], 1.43 µM.
With `COc1cc([C@@H]2c3cc4c(cc3[C@H](O)[C@H]3COC(=O)[C@H]23)OCO4)cc(OC)c1OC` [PODOFILOX], the half-maximal activity concentration (AC50) (on Acetylcholinesterase; at Adenosine receptor A3; in [1]; on D(1A) dopamine receptor; on Histamine H3 receptor; in test [2]) was greater than 30 µM throughout. Also, the AC50 (in test [9]; in test [3]; at Mu-type opioid receptor; in test [4]; at Progesterone receptor; in test [5]) was greater than 30 µM each time. Also, the half-maximal activity concentration (AC50) in test [6] and in test [7] was greater than 30 µM throughout.
On to `Cc1oc(=O)oc1CN1CCN(c2cc3c(cc2F)c(=O)c(C(=O)O)c2n3C(C)S2)CC1` (stereo unspecified) [PRULIFLOXACIN], for which the AC50 (on Acetylcholinesterase; at D(1A) dopamine receptor; on Histamine H3 receptor; in test [2]; in test [3]; on Mu-type opioid receptor) was greater than 30 µM each time. For the same molecule, the concentration at half-maximal activity (AC50) (in test [4]; on Progesterone receptor; in [5]; in [6]; in test [7]; in test [8]) was greater than 30 µM in each case.
Take `CCN1CCCC1CNC(=O)c1cc(S(N)(=O)=O)ccc1OC` (stereo unspecified) [SULPIRIDE]: the AC50 at Acetylcholinesterase is greater than 30 µM; on Adenosine receptor A3, greater than 30 µM; in [1], greater than 30 µM; at D(1A) dopamine receptor it was 16.5 µM; on Histamine H3 receptor it was greater than 30 µM; in test [2], greater than 30 µM. Besides, the AC50 is greater than 30 µM in test [9]; greater than 30 µM in test [3]; greater than 30 µM on Mu-type opioid receptor; greater than 30 µM in test [4]; greater than 30 µM on Progesterone receptor; 11.7 µM in test [5]. For the same molecule, the concentration at half-maximal activity (AC50) in test [6] is 15.8 µM; in [7], greater than 30 µM.
For the molecule `O=c1[nH]c(=O)n(C2CCCO2)cc1F` (stereo unspecified) [TEGAFUR], the AC50 (on Acetylcholinesterase; at Adenosine receptor A3; in test [1]; on D(1A) dopamine receptor; at Histamine H3 receptor; in [2]) was greater than 30 µM throughout. The AC50 (in test [9]; in test [3]; on Mu-type opioid receptor; in test [4]; at Progesterone receptor; in test [5]) was greater than 30 µM throughout. The half-maximal activity concentration (AC50) in test [6] and in [7] was greater than 30 µM throughout.
On to `COc1cc2c3cc1Oc1cc(ccc1O)C[C@@H]1c4c(cc(OC)c(O)c4Oc4ccc(cc4)C[C@@H]3N(C)CC2)CC[N+]1(C)C` [TUBOCURARINE], for which the concentration at half-maximal activity (AC50) (on Acetylcholinesterase; on Adenosine receptor A3; in test [1]; at D(1A) dopamine receptor; at Histamine H3 receptor; in test [2]) was greater than 30 µM in each case. The AC50 is greater than 30 µM in test [9]; greater than 30 µM in test [3]; 24.1 µM on Mu-type opioid receptor; greater than 30 µM in [4]; greater than 30 µM on Progesterone receptor; greater than 30 µM in test [5]. Also, the concentration at half-maximal activity (AC50) in [6] and in [7] was greater than 30 µM throughout.
Take `C=CCCCCCCCCC(=O)O` [UNDECYLENIC ACID]: the concentration at half-maximal activity (AC50) (on Acetylcholinesterase; at D(1A) dopamine receptor; at Histamine H3 receptor; in [2]; in test [3]; on Mu-type opioid receptor) was greater than 30 µM throughout. Besides, the AC50 (in test [4]; on Progesterone receptor; in test [5]; in [6]; in test [7]; in [8]) was greater than 30 µM each time.
As to `CCOc1ccccc1OCC1CNCCO1` (stereo unspecified) [VILOXAZINE], the AC50 (at Acetylcholinesterase; at Adenosine receptor A3; in test [1]; on D(1A) dopamine receptor; on Histamine H3 receptor; in test [2]) was greater than 30 µM throughout. Also, the AC50 (in test [9]; in [3]; on Mu-type opioid receptor; in test [4]; at Progesterone receptor; in test [5]) was greater than 30 µM throughout. The AC50 in test [6] was greater than 30 µM; in test [7] it was 0.362 µM.
